Measurements: article PMC11134331, “Cell-active small molecule inhibitors validate the SNM1A DNA repair nuclease as a cancer target” (Chemical Science, 2024)
Blank lines part the entries; values can stand above or below the compound they belong to.

Experiments:
[1] = system: γH2AX and EGFP-SNM1A foci in U2OS cells; experiment: microscopic analysis of damage-induced subnuclear foci, U2OS cells expressing EGFP-SNM1A; assay type: cell-based, human; details: U2OS, cisplatin treated, without 19
Method: To this end, cells stably expressing N-terminally EGFP-tagged SNM1A (EGFP-SNM1A) were treated with 50 μM cisplatin alone, 19 (50 μM), or with a combination of both compounds. It is known that on treatment of cells with DNA crosslinking agents, SNM1A forms subnuclear foci that are associated with ongoing sites of DNA repair.[37] […] As previously established, cisplatin treatment efficiently induces co-localisation of EGFP-SNM1A foci and γH2AX foci within 4 hours following treatment, marking sites of cisplatin damage and its repair (Fig. 6C–E). These largely resolved 24 hours post-treatment, again consistent with previous studies.[16,37] Co-treatment of cells with 19 and cisplatin saw a robust induction of SNM1A foci, consistent with the SNM1A activity being dispensable for its localisation to sites of crosslink repair, and γH2AX foci formation (Fig. 6C–E). […] This clear persistence of repair intermediates and trapping of EGFP-SNM1A at the sites of these repair intermediate implies that 19 engages with SNM1A in a cellular context, delaying the completion of cisplatin crosslink repair, which, in turn, results in the sensitisation of cells to cisplatin.
To assess the number of nuclear foci following cisplatin/inhibitor treatments, cells were plated in glass bottom dishes (as above) and allowed to attach. Following treatment, cells were fixed with 4% (v/v) formaldehyde in PBS, blocked with immunofluoresence (IF) blocking buffer (5% horse serum, 1% saponin in PBS) for 1 h, then incubated with primary antibodies at the desired concentrations in IF blocking buffer (overnight, 4 °C). After washing cells three times with PBS, cells were incubated with secondary antibodies for 2–4 hours in IF blocking buffer, washed a further 3 times with PBS then stained with Hoechst 333 258 (1 μg mL^−1 in PBS) for 30 minutes before a further three washes (all washes and incubations were performed at room temperature, unless otherwise stated).
Confocal images were obtained with a Plan APO 63X 1.40NA oil immersion objective, a pinhole setting of 1 AU, bandpass emission settings of 410–468 nm for Hoechst, 490–544 nm for EGFP, 579–624 nm for RFP or Alexa 568, and 633–695 nm for Alexa 647, a projected pixel dimension of around 110 nm × 110 nm, a pixel dwell time of 1.35 μs, and with a line averaging setting of 2. In order to ensure sufficient cell numbers (N > 300), images were acquired in a tiled 5 × 5 format corresponding to an image area of about 0.65 mm × 0.65 mm. Images were imported into ImageJ and foci were counted using a macro adjusting for staining levels between experiments. Anti-γH2AX antibodies were a mouse monoclonal (Millipore; JBW301).

[2] = system: γH2AX foci in RPE-1 cells; experiment: microscopic analysis of damage-induced subnuclear foci, RPE-1 cells; assay type: cell-based, human; details: RPE-1, cisplatin treated, without 19
Method: To assess the number of nuclear foci following cisplatin/inhibitor treatments, cells were plated in glass bottom dishes (as above) and allowed to attach. Following treatment, cells were fixed with 4% (v/v) formaldehyde in PBS, blocked with immunofluoresence (IF) blocking buffer (5% horse serum, 1% saponin in PBS) for 1 h, then incubated with primary antibodies at the desired concentrations in IF blocking buffer (overnight, 4 °C).
Images were imported into ImageJ and foci were counted using a macro adjusting for staining levels between experiments. Anti-γH2AX antibodies were a mouse monoclonal (Millipore; JBW301).

[3] = biological target: T1, SNM1B (Homo sapiens, UniProt Q9H816); experiment: real-time fluorescence-based nuclease assay, SNM1B; assay type: biochemical
T1 construct: for the MBL and β-CASP domains of SNM1B (aa 1–335) into baculoviral expression vectors pFB-CT10HF-LIC; made in house; host or cells: Sf9 insect cells (baculovirus)
T1 sequence (Q9H816 1-335): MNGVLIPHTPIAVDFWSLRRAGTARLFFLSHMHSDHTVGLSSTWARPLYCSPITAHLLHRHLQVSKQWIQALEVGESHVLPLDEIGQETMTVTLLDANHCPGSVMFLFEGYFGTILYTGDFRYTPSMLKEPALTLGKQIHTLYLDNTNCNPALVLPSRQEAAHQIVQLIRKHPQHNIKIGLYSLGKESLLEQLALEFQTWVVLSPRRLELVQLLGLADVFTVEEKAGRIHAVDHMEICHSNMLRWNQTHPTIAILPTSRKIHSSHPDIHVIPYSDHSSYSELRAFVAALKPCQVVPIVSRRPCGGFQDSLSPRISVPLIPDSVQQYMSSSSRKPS
Method: (§1) There is structural similarity between SNM1A, SNM1B, and SNM1C and major mechanistic features are likely conserved between the three nucleases. We therefore tested (13) and other hydroxamic acid analogues for inhibition of SNM1B and SNM1C. Due to differences in catalytic turnover between the three enzymes, different concentrations of SNM1B (1 nM) and SNM1C (2.5 nM) were used compared to that for SNM1A (0.5 nM) in the assays. Note that the substrate utilised for the high-throughput fluorescence based and subsequent SNM1A and SNM1B assays differed slightly for SNM1C reflecting its (primarily) endonucleolytic, rather than exonucleolytic, activity (ESI Fig. 9 ^†).
Fluorescence-based nuclease digestion SNM1A–C assays were performed as described.[30,45] […] Fluorescence was measured using a PHERAstar FSX fluorescent plate reader in fluorescent top read mode using excitation at 495 nm, emission at 525 nm, and cutoff at […]. Fluorescence spectra were measured every 140 s, for 35 min, at 37 °C. The fluorescence intensity of each well was plotted against compound concentration and fitted using a log (inhibitor) response curve using GraphPad Prism software (GraphPad Software, Inc., La Jolla, CA, USA).

[4] = biological target: T2, SNM1C (Homo sapiens, UniProt Q96SD1); experiment: real-time fluorescence-based nuclease assay, SNM1C; assay type: biochemical; details: real-time fluorescence-based nuclease assay
T2 construct: for the MBL and β-CASP domains of SNM1C (aa 1–362) into the baculovirus expression vector pBF-6HZB; made in house; host or cells: Sf9 insect cells (baculovirus)
Source text: as §1, with “Due to differences in catalytic turnover between the three enzymes, different concentrations of SNM1B (1 nM) and SNM1C (2.5 nM) were used compared to that for SNM1A (0.5 nM) in the assays.” left out
(§2) Fluorescence-based nuclease digestion SNM1A–C assays were performed as described.[30,45] In the case of SNM1A and SNM1B, a 20-mer oligonucleotide with a 5′ FITC-conjugated-T and an internal BHQ-1 (black hole quencher) conjugated-T, eight nucleotides distal (3′) to the fluor was utilised; whereas for SNM1C a 20-mer oligonucleotide with a 5′ FITC-conjugated-T and a 3′ BHQ-1(black hole quencher) was used to capture all possible endonucleolytic incisions. Reactions (25 μL) were performed in 384 well microplates in nuclease buffer (20 mM HEPES-KOH pH 7.5, 50 mM KCl, 10 mM MgCl2, 0.5 mM TCEP, 0.05% (v/v) Triton-X, 0.1 mg mL^−1 BSA, 5% (v/v) glycerol) with SNM1A/B/C (0.1 nM SNM1A, 0.5 nM SNM1B and 1 nM SNM1C) as indicated. Proteins were incubated for 10 min at RT with the stated compound where applicable, before the reaction was initiated with the addition of 10 nM DNA substrate. […] Fluorescence spectra were measured every 140 s, for 35 min, at 37 °C. The fluorescence intensity of each well was plotted against compound concentration and fitted using a log (inhibitor) response curve using GraphPad Prism software (GraphPad Software, Inc., La Jolla, CA, USA).

[5] = solubility; assay type: physicochemical
[6] = biological target: T3, SNM1A (Homo sapiens, UniProt Q6PJP8); experiment: real-time fluorescence-based nuclease assay, SNM1A; assay type: biochemical; set-up: DNA encoding for the MBL and β-CASP domains of SNM1A (aa 676–1040) was cloned into the baculovirus transfer vector pFB-LIC-Bse; inferred from vector pFB-LIC-Bse and the IMAC purification; made in house; host or cells: Sf9 insect cells (baculovirus); details: resynthesised compounds
T3 sequence (Q6PJP8 676-1040): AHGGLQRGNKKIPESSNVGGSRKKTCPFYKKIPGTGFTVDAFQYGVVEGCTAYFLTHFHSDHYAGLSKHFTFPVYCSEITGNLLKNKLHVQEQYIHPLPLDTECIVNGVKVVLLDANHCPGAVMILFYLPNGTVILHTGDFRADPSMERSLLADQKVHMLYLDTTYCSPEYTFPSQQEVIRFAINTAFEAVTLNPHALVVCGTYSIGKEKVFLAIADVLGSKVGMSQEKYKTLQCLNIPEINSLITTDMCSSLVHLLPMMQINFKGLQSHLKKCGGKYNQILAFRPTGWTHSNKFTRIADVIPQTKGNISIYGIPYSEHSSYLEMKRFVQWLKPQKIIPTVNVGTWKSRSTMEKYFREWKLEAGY
Method: (§3) In brief, the fluorescence-based nuclease assay utilises a chemically modified 20-nucleotide ssDNA substrate with a fluorescein isothiocyanate (FITC) derived 5′-group and an internal black-hole-quencher-1 (BHQ-1), located eight nucleotides distal to the fluorescein group. In the intact substrate the BHQ-1 suppresses fluorescence, however, exonucleolytic digestion of the substrate from the 5′ end by SNM1A uncouples the BHQ-1 and FITC moieties (see Fig. 1D). Spectra were measured every 140 seconds with an increase in fluorescence indicating enzymatic activity by SNM1A (concentration: 0.1 nM).
as §2

[7] = biological target: T2, SNM1C; details: cited from earlier work
[8] = biological target: T3, SNM1A; set-up: DNA encoding for the MBL and β-CASP domains of SNM1A (aa 676–1040) was cloned into the baculovirus transfer vector pFB-LIC-Bse; inferred from vector pFB-LIC-Bse and the IMAC purification; made in house; host or cells: Sf9 insect cells (baculovirus); details: cited from earlier work
[9] = biological target: T3, SNM1A; experiment: biochemical
Method: as §3

[10] = real-time fluorescence-based nuclease assay, read-out: SNM1A IC50

T2 sequence (Q96SD1 1-362): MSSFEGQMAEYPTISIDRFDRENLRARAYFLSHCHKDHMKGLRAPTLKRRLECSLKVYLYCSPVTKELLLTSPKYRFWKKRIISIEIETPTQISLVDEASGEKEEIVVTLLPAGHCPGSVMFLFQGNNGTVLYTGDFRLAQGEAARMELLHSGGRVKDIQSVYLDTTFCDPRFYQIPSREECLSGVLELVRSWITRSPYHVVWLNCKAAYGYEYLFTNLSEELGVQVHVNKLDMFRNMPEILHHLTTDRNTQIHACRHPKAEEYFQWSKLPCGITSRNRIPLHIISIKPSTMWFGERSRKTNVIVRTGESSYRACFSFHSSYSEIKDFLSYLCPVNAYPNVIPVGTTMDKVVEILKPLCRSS

SMILES: N.N.[Cl][Pt][Cl] [cisplatin, reference compound]
average number of γH2AX foci at 24 hours [1]: 21.5 ± 0.5 foci | average γH2AX foci count at 24 hours [2]: 10.4 ± 0.3 foci

IC50 [3]: 1.9 µM | IC50 [4]: 0.37 µM | solubility [5]: poor solubility | IC50 [6, 10]: 2.4 µM
SMILES: COc1ccc2c3c(cccc13)C(=O)N(O)C2=O [compound 1]

SMILES: CO/N=C(\C(=O)N[C@@H]1C(=O)N2C(C(=O)O)=C(CSc3nc(=O)c(=O)[nH]n3C)CS[C@H]12)c1csc(N)n1 [compound 5, ceftriaxone]
inhibition of SNM1C (potency in words) [7]: low μM potency | inhibition of SNM1A (potency in words) [8]: low μM potency

IC50 [9]: 17.4 µM | IC50 ([6]; SNM1A IC50, real-time fluorescence-based nuclease assay): 129 µM | IC50 [6, 10]: 110 µM
SMILES: C=CCNc1nc(N[C@@H](CC(C)C)C(=O)O)c2cc(Cl)ccc2n1 [compound 6]
